Assays:
[1] = Drug-excipient compatibility: HPLC assay and impurities of 20 mg/ml API/excipient solutions in purified water after storage; format: physicochemical
Description: Common excipients functioning as a solvent, a sweetener, an antioxidant, a chelating agent, a buffer system component, and a preservative were evaluated in the following example for excipient and drug substance compatibility. Compatibility was assessed through high performance liquid chromatography (HPLC) analysis of solutions containing the mixtures of the drug substance and the individual evaluated excipient in purified water. A relatively low concentration (20 mg/ml) of active pharmaceutical ingredient was selected to enhance potential oxidative or hydrolytic degradation of the API in the presence of the excipients. The excipients were used in slight excess to enhance potential interactions. The proportion of excipients was selected such that it was representative of their respective proportions to the API in the finished product.
Additionally, the pH of the solution was also monitored during development to ensure the physical stability of the product.

[2] = pH range of 1 to 12 at ambient temperature; cited from earlier work
[3] = after storage for 1 Month at 25° C./60% RH
[4] = after storage for 1 Month at 40° C./75% RH
[5] = after storage for 15 days at 60° C.

With `CN(C)CCCN1c2ccccc2Sc2ccc(Cl)cc21.Cl` [Chlorpromazine hydrochloride, 2-chloro-10-[3-(dimethylamino)propyl] phenothiazine hydrochloride] the “Assay of Chlorpromazine Hydrochloride (% Label Claim)” value (“Assay … (% Label Claim)” for short) ([1]; 1 M, 25° C./60% RH) was 98.6 % Label Claim, the “Assay … (% Label Claim)” value ([1]; 1 M, 40° C./75% RH) was 98.7 % Label Claim and the “Assay … (% Label Claim)” value ([1]; 15 Days, 60° C.) was 100.9 % Label Claim. For the same compound, the “Assay … (% Label Claim)” value ([1]; T0) was 98.3 % Label Claim, the “Impurities (%) A” value [1, 3] was 0.07% and the “Impurities (%) C” value [1, 3] was 0.07%. For the same compound, the “Impurities (%) D” value [1, 3] was 0.03%, the “Impurities (%) Total” value [1, 3] was 0.24% and the “Impurities (%) UD (RRT 0.55)” value [1, 3] was 0.02%. The “Impurities (%) UD (RRT 0.61)” value [1, 3] was 0.02%, the “Impurities (%) UD (RRT 1.42)” value [1, 3] was 0.03% and the “Impurities (%) A” value [1, 4] was 0.21%. For the same compound, the “Impurities (%) C” value [1, 4] was 0.07%, the “Impurities (%) D” value [1, 4] was 0.08% and the “Impurities (%) Total” value [1, 4] was 0.44%. The “Impurities (%) UD (RRT 0.55)” value [1, 4] was 0.02%, the “Impurities (%) UD (RRT 0.61)” value [1, 4] was 0.02% and the “Impurities (%) UD (RRT 1.42)” value [1, 4] was 0.03%. The “Impurities (%) A” value [1, 5] was 0.55%, the “Impurities (%) C” value [1, 5] was 0.08% and the “Impurities (%) D” value [1, 5] was 0.18%. For the same compound, the “Impurities (%) E” value [1, 5] was 0.02%, the “Impurities (%) Total” value [1, 5] was 1.04% and the “Impurities (%) UD (RRT 0.49)” value [1, 5] was 0.02%. For the same compound, the “Impurities (%) UD (RRT 0.55)” value [1, 5] was 0.14%, the “Impurities (%) UD (RRT 0.61)” value [1, 5] was 0.03% and the “Impurities (%) UD (RRT 1.42)” value [1, 5] was 0.03%. For the same compound, the “Impurities (%) Total” value ([1]; time zero) was 0.11%, the “Impurities (%) UD (RRT 0.82)” value ([1]; time zero) was 0.08% and the “Impurities (%) UD (RRT 1.31)” value ([1]; time zero) was 0.03%. The solubility [2] was “greater than 1 g/mL”.

Reference: patent US11766441B2, “Oral liquid compositions including chlorpromazine” (GENUS LIFESCIENCES INC., priority 2020, dated 2023)
